Results: ChEMBL document CHEMBL2176943, “Discovery of inhibitors to block interactions of HIV-1 integrase with human LEDGF/p75 via structure-based virtual screening and bioassays” (J Med Chem, 2012)
Activity calls are given as the source filed them. No cut-off for these calls is given here.

Legend:
[1] = biological target: Human immunodeficiency virus type 1 integrase (Human immunodeficiency virus 1, UniProt Q7ZJM1); assay: Inhibition of HIV1 His6-tagged integrase-human GST tagged LEDGF/p75 (373-442 residues) interaction after 30 mins by AlphaScreen assay
[2] = Therapeutic index, ratio of CC50 for human C8166 cells to EC50 for HIV-1 3B infected in C8166 cells; assay type: cell-based; conditions: read-out: Ratio CC50/EC50
[3] = test system: Human immunodeficiency virus 1; assay: Antiviral activity against HIV-1 3B infected in C8166 cells assessed as virus-induced cytopathic effect measuring […] formation after 3 days by microscopy; assay type: functional, organism-based; conditions: Human immunodeficiency virus 1, 3B, C8166, 72 h
[4] = biological target: Human immunodeficiency virus type 1 integrase (Human immunodeficiency virus 1) (UniProt Q7ZJM1); assay: Inhibition of nuclear translocation of HIV1 EGFP-labeled integrase expressed in human 293T cells at 86.73 uM after 24 hrs by microscopic analysis; assay type: cell-based
[5] = Cytotoxicity against human C8166 cells after 3 days by MTT assay; assay type: cell-based
[6] = biological target: Human immunodeficiency virus type 1 integrase (Human immunodeficiency virus 1) (UniProt Q7ZJM1); assay: Inhibition of nuclear translocation of HIV1 EGFP-labeled integrase expressed in human 293T cells at 83.83 uM after 24 hrs by microscopic analysis; assay type: cell-based
[7] = biological target: Human immunodeficiency virus type 1 integrase (Human immunodeficiency virus 1) (UniProt Q7ZJM1); assay: Inhibition of nuclear translocation of HIV1 EGFP-labeled integrase expressed in human 293T cells at 36 uM after 24 hrs by microscopic analysis; assay type: cell-based
[8] = biological target: Human immunodeficiency virus type 1 integrase (Human immunodeficiency virus 1) (UniProt Q7ZJM1); assay: Inhibition of nuclear translocation of HIV1 EGFP-labeled integrase expressed in human 293T cells at 36.40 uM after 24 hrs by microscopic analysis; assay type: cell-based

Row | SMILES | IC50 [1] [nM] | also measured
1 | O=C(/C=C/c1ccccc1O)c1c(O)cc(O)cc1O | 6210 | –
2 | O=C(/C=C/c1cc(F)cc(F)c1)c1ccc(O)cc1O | 1750 | –
3 | O=C(NCc1cccc([N+](=O)[O-])c1)c1ccc(OCc2ccccc2)cc1O | 3840 | –
4 | Cc1cn([C@H]2C[C@H](N=[N+]=[N-])[C@@H](CO)O2)c(=O)[nH]c1=O [ZIDOVUDINE] | – | selectivity ratio [2]: 473000; EC50 [3]: 8.7 nM
5 | O=C(/C=C/c1cc(O)ccc1O)c1ccc(O)cc1O | 3780 | –
6 | COc1cccc(CC(NC(=O)CCCC[C@]23CCC(C)(C)C[C@H]2C2=CC[C@@H]4[C@@]5(C)CC[C@H](O)C(C)(C)[C@@H]5CC[C@@]4(C)[C@]2(C)CC3)C(=O)O)c1OC (mixture of isomers) | 3220 | –
7 | O=C(/C=C/c1cccc(O)c1O)c1c(O)cc(O)cc1O | 260 | inhibition [4]: Active; CC50 at 72 h [5]: 111000 nM; selectivity ratio [2]: 3.76; EC50 [3]: 29600 nM
8 | CCOc1cc(/C=C2\SC(=O)N(CC(=O)c3ccccc3)C2=O)c(Br)cc1OCc1ccc(C(=O)O)cc1 | – | inhibition [6]: Active
9 | COc1cc(CC(NC(=O)CCCC[C@]23CCC(C)(C)C[C@H]2C2=CC[C@@H]4[C@@]5(C)CC[C@H](O)C(C)(C)[C@@H]5CC[C@@]4(C)[C@]2(C)CC3)C(=O)O)cc(OC)c1 (mixture of isomers) | 1260 | –
10 | CC1(C)CC[C@]2(C(=O)O)CC[C@]3(C)C(=CC[C@@H]4[C@@]5(C)CC[C@H](OCc6ccccc6)C(C)(C)[C@@H]5CC[C@]43C)[C@@H]2C1 | 700 | –
11 | O=C(/C=C/c1ccccc1O)c1cccc(O)c1O | 1610 | –
12 | O=C(/C=C/c1ccccc1O)c1ccc(O)c(O)c1 | 3670 | –
13 | O=C(/C=C/c1cccc(O)c1O)c1ccc(O)cc1O [2,3,2',4'-TETRAHYDROXYCHALCONE] | 1700 | –
14 | O=C(/C=C/c1ccc(O)c(O)c1)O[C@H](Cc1ccc(O)c(O)c1)C(=O)O [ROSMARINIC ACID] | 550 | –
15 | CC1(C)CC[C@]2(C(=O)O)CC[C@]3(C)C(=CC[C@@H]4[C@@]5(C)CC[C@H](OC(=O)C(=O)O)C(C)(C)[C@@H]5CC[C@]43C)[C@@H]2C1 | 9940 | –
16 | CC1(C)CC[C@]2(C(=O)O)CC[C@]3(C)C(=CC[C@@H]4[C@@]5(C)CC[C@H](OC(=O)CC(C)(C)C(=O)O)C(C)(C)[C@@H]5CC[C@]43C)[C@@H]2C1 | 5510 | –
17 | O=C(/C=C/c1ccccc1Cl)c1ccc(O)cc1O | 320 | inhibition [8]: Active; CC50 at 72 h [5]: 8830 nM; selectivity ratio [2]: 4.88; EC50 [3]: 1810 nM

Further lines, with some results ahead:

Row | IC50 [1] [nM] | SMILES | also measured
18 | 4560 | COc1ccccc1CC(NC(=O)CCCC[C@]12CCC(C)(C)C[C@H]1C1=CC[C@@H]3[C@@]4(C)CC[C@H](O)C(C)(C)[C@@H]4CC[C@@]3(C)[C@]1(C)CC2)C(=O)O (mixture of isomers) | –
19 | 19 | Cc1nc2ccccc2c(-c2cc(F)c3c(c2C)CCCO3)c1[C@H](OC(C)(C)C)C(=O)O | –
20 | 650 | CC1(C)CC[C@]2(CCCCC(=O)NC(Cc3ccccc3Cl)C(=O)O)CC[C@]3(C)C(=CC[C@@H]4[C@@]5(C)CC[C@H](O)C(C)(C)[C@@H]5CC[C@]43C)[C@@H]2C1 (mixture of isomers) | inhibition [7]: Active; CC50 at 72 h [5]: 77500 nM; selectivity ratio [2]: 2.12; EC50 [3]: 36600 nM
21 | 1140 | CC1(C)CC[C@]2(C(=O)O)CC[C@]3(C)C(=CC[C@@H]4[C@@]5(C)CC[C@H](OCc6cccc(C(=O)O)c6)C(C)(C)[C@@H]5CC[C@]43C)[C@@H]2C1 | –
